Article PMC11056319, “Targeting PRMT9-mediated arginine methylation suppresses cancer stem cell maintenance and elicits cGAS-mediated anticancer immunity” (Nature Cancer, 2024)

system: Molm13; assay: cells; design: Molm13 cell viability screen of virtual-screening hits, 4 days of treatment, per cent of control; conditions: 1 uM, 4 days, 96 h
Procedure: We performed virtual screening. Briefly, we screened compounds for binding affinity to PRMT9; compounds were from the National Cancer Institute (NCI) and ZINC library (Fig. 4a,b). […] We used doses of 1 and 5 µM in a Molm13 cell-based viability assay (Extended Data Fig. 6a). […] Specifically, we assessed their effects on PRMT9 catalysis (Extended Data Fig. 6b). […] Cells were treated for 4 days with 1 or 5 μM compounds. For each compound, the number represents its library ID. Experiments were triplicated; P values were derived from t tests. b, R493 methylation assay. […] Catalytic activity was assessed by anti-R493 antibody. Synthesized R493me peptide as positive control. c, Catalysis screen of top 20 compounds. PRMT9 protein was pretreated with indicated compound (10 μM), then incubated with PABPC1 peptides and SAM. d, e, Catalytic activity of indicated compounds based on R493 methylation assay (d). Inhibition curves were calculated based on intensity of dots and normalized to DMSO (e). […] LD2 is designed based on NSC641396 (g). Docking model of NSC641396 in the catalytic pocket (f). h, IC50 analysis of LD2 in B-NHL lines. Cells were treated for 4 days with LD2. […] Cells were treated with a dose titration of 0.5–40 μM LD2 for 48 hr. The inhibition activity of LD2 to PRMT9 (right red curve) was evaluated by calculating the normalized PABPC1 R493 methylation signal. The inhibition activity of LD2 to PRMT5 (right blue curve) was evaluated by calculating the normalized SmB’B’ methylation signal (supplementary Fig. 2). k, Vina docking of LD2 with PRMT9, PRMT5, CARM1 or PRMT7 was performed, and the average docking scores (kcal/mol, with standard deviation) were shown. l, Molecular dynamics simulation analyses of LD2 with PRMT9 or PRMT5.

Row | Compound | % viability [%]
1 | OC(COc1cccc2ccccc12)CN1CCN(c2ccc(Cl)cc2)CC1 (stereo not drawn) [NSC91397] | 148.7

same assay, conditions: 5 uM, 4 days, 96 h

Row | Compound | % viability [%]
2 | OC(COc1cccc2ccccc12)CN1CCN(c2ccc(Cl)cc2)CC1 (stereo not drawn) [NSC91397] | 145.8

same assay, conditions: Homo sapiens, MOLM-13, 96 h, 4 days

Row | Compound | viability at 1 µM [%] | viability at 5 µM [%]
3 | Cc1c(O)ccc2c(O)c(NC(=O)c3ccc4c(c3)CCC(C)(C)O4)c(=O)oc12 [NSC5157] | 94.6 | 
4 | Cc1ccc(NC(=S)NC(=O)c2ccccc2)cc1NC(=S)NC(=O)c1ccccc1 [NSC5856] | 91.4 | 91.5
5 | c1ccc(-n2c3ccccc3c3ccccc32)cc1 [NSC10416] | 99.1 | 81.7
6 | O=C1C(=Nc2cccc(Cl)c2)CC(c2ccc(Cl)cc2)N1c1cccc(Cl)c1 (stereo not drawn) [NSC13294] | 98.3 | 97.9
7 | CCN(CC)c1ccc(/C=C/c2cc(-c3ccccc3)c3ccccc3n2)cc1 [NSC13487] | 93.3 | 94.8
8 | Clc1ccccc1/C=C/c1ccnc2ccccc12 [NSC15784] | 85.7 | 81.7
9 | CC(=O)Oc1ccc2cc(-c3ccccc3)c(=O)oc2c1 [NSC17055] |  | 102
10 | Cn1ncc2c(Nc3ccccc3Cl)nc(Nc3ccccc3Cl)nc21 [NSC19061] | 158 | 
11 | COC(=O)[C@@H]1[C@H](O)[C@H](C)[C@H](O)[C@H](C)/C=C\C=C(/C)C(=O)Nc2c(C)c(OC(C)=O)c3c(c2O)C(=O)C(C)=C2OCOC(=C23)/C(C)=C/[C@@](C)(O)[C@H](O)[C@@H](C)[C@H]1O [NSC19990] | 68.6 | 83.8
12 | C[C@H]1CC[C@@]2(C)[C@@H](CC[C@@H]3[C@@H]2CC[C@]2(C)[C@@H](O)CC[C@@H]32)C1 [NSC21603] |  | 96.5
13 | c1ccc(Nc2cccc3c(Nc4ccccc4)cccc23)cc1 [NSC24032] | 120 | 
14 | c1ccc(-c2nc(-c3nccc4ccccc34)oc2-c2ccccc2)cc1 [NSC25457] |  | 110
15 | Cc1cc(O)c(C(C)C)cc1NC(=O)Nc1cccc2ccccc12 [NSC32673] | 90.3 | 45.8
16 | COc1cc2c(cc1OC)C(=O)Cc1ccc3c(c1CN(C)CC2)OCO3 [NSC32984] | 137 | 
17 | Cc1cc(O)c(C(C)C)cc1N=Cc1cc([N+](=O)[O-])ccc1O [NSC33472] | 120 | 
18 | O=C(Nc1cccc(-c2ccccc2)c1)N1CCN(C(=O)Nc2cccc(-c3ccccc3)c2)CC1 [NSC37553] | 96.2 | 
19 | O=C1c2cccc(Oc3ccccc3)c2C(=O)c2cccc(Oc3ccccc3)c21 [NSC37627] | 144 | 151
20 | CN1CCN(C(=O)Nc2cccc(-c3ccccc3)c2)CC1 [NSC39352] | 96.7 | 
21 | COc1ccc2nc(-c3ccc(Cl)cc3)cc(C(=O)O)c2c1 [NSC39984] | 76.8 | 79.5
22 | Cc1ccc2c(c1)Sc1c(ccc3ccccc13)N2 [NSC40273] |  | 102
23 | O=C(O)c1cc2ccccc2cc1Nc1ccccc1 [NSC40275] | 116 | 
24 | O=C(Nc1cccc([N+](=O)[O-])c1)c1ccc2ccccc2c1O [NSC50648] | 81 | 62.1
25 | COc1ccc(NC(=O)c2cc3ccc4c5ccccc5[nH]c4c3cc2O)cc1 [NSC50654] | 127 | 134
26 | Brc1ccc(-c2csc(Nc3nc(-c4ccc(Br)cc4)cs3)n2)cc1 [NSC55691] |  | 114
27 | Cc1cc(N=Nc2c(O)c3ccccc3[nH]c2=O)ccc1N=Nc1ccc(C(=O)N(C)C)cc1 [NSC58052] | 96 | 80.5
28 | CC(=O)O[C@H]1CC[C@@]2(C)[C@@H](CC[C@@H]3[C@@H]2CC(=O)[C@@]2(C)[C@H]3C[C@@H]3CC(C)=CC(=O)[C@@H]32)C1 [NSC59620] |  | 93.6

Row | Compound | viability at 1 µM [%] | viability at 5 µM [%]
29 | Nc1ccc(-c2nc3nc(N)nc(N)c3nc2-c2ccc(N)cc2)cc1 [NSC61642] |  | 116
30 | Cc1cccc2cc3cccc(C)c3nc12 [NSC61888] | 144 | 134
31 | O=C(Nc1ccc(C2=NCCCN2)cc1)Nc1ccc(C2=NCCCN2)cc1 [NSC63680] |  | 75.2
32 | O=C(Nc1ccc(C2=NCCN2)cc1)c1ccc(Cl)c(C(=O)Nc2ccc(C3=NCCN3)cc2)c1 [NSC67436] | 95.2 | 81.3
33 | O=[N+]([O-])c1ccc2[nH]c3nc4ccccc4nc3c2c1 [NSC78697] | 169 | 157
34 | COc1ccc2c3c([nH]c2c1)[C@H]1C[C@H]2[C@H](C[C@@H](O)[C@H](OC)[C@H]2CO)CN1CC3 [NSC80137] | 82.2 | 75.6
35 | N#Cc1ccc(NC(=O)Nc2ccc(Oc3ccc(NC(=O)Nc4ccc(C#N)cc4)cc3)cc2)cc1 [NSC80734] |  | 67.2
36 | O=C(/C=C/C(=O)N1CCc2ccccc2C1)N1CCc2ccccc2C1 [NSC87838] | 92.3 | 92.6
37 | OC(COc1cccc2ccccc12)CN1CCN(c2ccccc2Cl)CC1 (stereo not drawn) [NSC91396] | 147 | 143
38 | OC(COc1cccc2ccccc12)CN1CCN(c2ccccc2)CC1 (stereo not drawn) [NSC91398] | 59.8 | 60.9
39 | Cc1ccc(N2CCN(CC(O)COc3cccc4ccccc34)CC2)cc1 (stereo not drawn) [NSC91402] | 156 | 145
40 | O=C(/C=C/c1ccc(O)c(O)c1)O[C@@H]1C[C@@](OC(=O)/C=C/c2ccc(O)c(O)c2)(C(=O)O)C[C@@H](O)[C@@H]1O [NSC91529] | 110 | 
41 | C[C@]12C[C@H](O)[C@H]3[C@@H](CCC4=CC(=O)CC[C@@]43C)[C@@H]1CC[C@@H]2c1csc(-c2ccccc2)n1 [NSC93354] | 91.9 | 69.1
42 | CC[C@@]1(O)C(=O)OCc2c1cc1n(c2=O)Cc2cc3ccccc3nc2-1 [NSC94600] | 2.48 | 1.54
43 | CC(=O)O[C@H]1CC[C@]2(C)C(=CC[C@H]3[C@H]4C[C@H]5O[C@]6(CC[C@H](C)CN6)[C@H](C)[C@@H]5[C@]4(C)CC[C@@H]32)C1 [NSC96021] | 102 | 87.9
44 | c1cc2c3c(cccc3c1)NC1(CCC3(CC1)Nc1cccc4cccc(c14)N3)N2 [NSC97920] | 59.1 | 8.91
45 | Cc1cc2cc3c(=O)[nH]c(=O)[nH]c3nc2cc1C [NSC109174] |  | 79.9
46 | OC(COc1cccc2ccccc12)CN1CCN(c2ccc(Cl)cc2)CC1 (stereo not drawn) [NSC111210] | 160 | 139
47 | Oc1ccc2ccccc2c1C=Nc1ccccc1 [NSC111846] | 77 | 84.6
48 | Oc1ccccc1N=Cc1c(O)ccc2ccccc12 [NSC111847] |  | 85.7
49 | Oc1ccc(N=Cc2c(O)ccc3ccccc23)cc1 [NSC111848] | 93.1 | 74.1
50 | c1ccc(-c2nc(-c3ccccn3)nc(-c3ccccn3)n2)nc1 [NSC112125] | 85.4 | 81.8
51 | c1ccc(-c2ccc(-c3nccc4ccccc34)[nH]2)cc1 [NSC116644] |  | 88.3
52 | Cc1ccc(-c2nc(-c3nccc4ccccc34)oc2-c2ccccc2)cc1 [NSC116702] | 87.8 | 150
53 | O=C(CC1C=Cc2ccccc2N1C(=O)c1ccccc1)c1ccccc1 (stereo not drawn) [NSC116709] | 90.2 | 72.7
54 | NC1=NC(c2ccc(Cl)cc2)N(c2ccc(S(N)(=O)=O)cc2)C(N)=N1 (stereo not drawn) [NSC117268] | 90.3 | 
